Source: PubChem BioAssay AID248 (DTP/NCI, 2004)
Inconclusive results and toxic doses are left out.

System: L1210 leukemia ip in BDF1 mice, survival T/C
Test: NCI In Vivo Anticancer Drug Screen. Data for tumor model L1210 Leukemia (intraperitoneal) in B6D2F1 (BDF1) mice
Conditions: endpoint: mean survival time, higher = longer survival
Method in brief: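 Tumor was transplanted into mice, which were then dosed with test compound or vehicle alone. Survival was recorded for each group, and the treated figure was expressed relative to the control figure.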

[1] = dose: 100.0 mg/kg/injection, schedule: Q04DX003 (ip), vehicle: Klucel (hydroxypropylcellulose) (HPC)
[2] = dose: 200.0 mg/kg/injection, schedule: Q04DX003 (ip), vehicle: Klucel (hydroxypropylcellulose) (HPC)
[3] = dose: 400.0 mg/kg/injection, schedule: Q04DX003 (ip), vehicle: Klucel (hydroxypropylcellulose) (HPC)
[4] = dose: 100.0 mg/kg/injection, schedule: Q01DX001 (ip), vehicle: saline
[5] = dose: 200.0 mg/kg/injection, schedule: Q01DX001 (ip), vehicle: saline

O=C(O)c1ccc(B(O)O)cc1
T/C [1]: 103 % of control
T/C [2]: 103 % of control
T/C [3]: 93 % of control

[Co+2].[NH-]c1ccccc1C(=O)O.[NH-]c1ccccc1C(=O)O
T/C (dose: 100.0 mg/kg/injection, schedule: Q01DX009 (ip), vehicle: saline with Tween-80): 94 % of control
T/C (dose: 200.0 mg/kg/injection, schedule: Q01DX009 (ip), vehicle: saline with Tween-80): 93 % of control
T/C (dose: 400.0 mg/kg/injection, schedule: Q01DX009 (ip), vehicle: saline with Tween-80): 86 % of control

O=C(O)c1cc(-c2ccccc2Cl)nc2ccccc12
T/C [4]: 96 % of control
T/C [5]: 94 % of control
T/C (dose: 400.0 mg/kg/injection, schedule: Q01DX001 (ip), vehicle: saline): 97 % of control

CC(C)(O)CCC1=C(O)c2ccccc2C(=O)C1=O
T/C [1]: 100 % of control
T/C [2]: 94 % of control

O=NN(CCCl)C(=O)Nc1ccc(-c2ccc(NC(=O)N(CCCl)N=O)cc2)cc1
T/C (dose: 8.0 mg/kg/injection, schedule: Q01DX001 (ip), vehicle: carboxymethylcellulose (CMC)): 116 % of control
T/C (dose: 16.0 mg/kg/injection, schedule: Q01DX001 (ip), vehicle: carboxymethylcellulose (CMC)): 118 % of control
T/C (dose: 250.0 mg/kg/injection, schedule: Q01DX001 (ip), vehicle: carboxymethylcellulose (CMC)): 161 % of control
T/C (dose: 375.0 mg/kg/injection, schedule: Q01DX001 (ip), vehicle: carboxymethylcellulose (CMC)): 163 % of control
T/C (dose: 500.0 mg/kg/injection, schedule: Q01DX001 (ip), vehicle: carboxymethylcellulose (CMC)): 190 % of control
T/C (dose: 750.0 mg/kg/injection, schedule: Q01DX001 (ip), vehicle: carboxymethylcellulose (CMC)): 229 % of control
T/C (dose: 1000.0 mg/kg/injection, schedule: Q01DX001 (ip), vehicle: carboxymethylcellulose (CMC)): 229 % of control
T/C (dose: 1500.0 mg/kg/injection, schedule: Q01DX001 (ip), vehicle: carboxymethylcellulose (CMC)): 232 % of control
T/C (dose: 2000.0 mg/kg/injection, schedule: Q01DX001 (ip), vehicle: carboxymethylcellulose (CMC)): 168 % of control
T/C (dose: 2500.0 mg/kg/injection, schedule: Q01DX001 (ip), vehicle: carboxymethylcellulose (CMC)): 223 % of control

Cc1ccc(NC(=O)OCCOc2ccc(Br)cc2)cc1[N+](=O)[O-]
T/C [1]: 94 % of control
T/C [2]: 90 % of control
T/C [3]: 94 % of control

CCN(CC)CCCC(C)Nc1cc(/C=C/c2ccc(Cl)cc2)nc(/C=C/c2ccc(Cl)cc2)n1 (stereo not given)
T/C (dose: 50.0 mg/kg/injection, schedule: Q04DX003 (ip), vehicle: Klucel (hydroxypropylcellulose) (HPC)): 96 % of control
T/C [4]: 96 % of control
T/C [1]: 96 % of control
T/C [5]: 98 % of control
T/C [2]: 98 % of control

CCOC(=O)N(CCCCCCNC(c1ccccc1)S(=O)(=O)O)c1ccccc1 (stereo not given)
T/C (dose: 6.0 mg/kg/injection, schedule: Q01DX009 (ip), vehicle: saline): 109 % of control
T/C (dose: 12.0 mg/kg/injection, schedule: Q01DX009 (ip), vehicle: saline): 103 % of control
T/C (dose: 25.0 mg/kg/injection, schedule: Q01DX009 (ip), vehicle: saline): 106 % of control
T/C (dose: 50.0 mg/kg/injection, schedule: Q01DX009 (ip), vehicle: saline): 97 % of control
T/C (dose: 100.0 mg/kg/injection, schedule: Q01DX001 (ip), vehicle: carboxymethylcellulose (CMC)): 98 % of control
T/C (dose: 100.0 mg/kg/injection, schedule: Q01DX009 (ip), vehicle: saline): 86 % of control
